This test addresses T1, Apoptotic protease-activating factor 1 (Homo sapiens, UniProt O14727).
T1 sequence (O14727 whole entry): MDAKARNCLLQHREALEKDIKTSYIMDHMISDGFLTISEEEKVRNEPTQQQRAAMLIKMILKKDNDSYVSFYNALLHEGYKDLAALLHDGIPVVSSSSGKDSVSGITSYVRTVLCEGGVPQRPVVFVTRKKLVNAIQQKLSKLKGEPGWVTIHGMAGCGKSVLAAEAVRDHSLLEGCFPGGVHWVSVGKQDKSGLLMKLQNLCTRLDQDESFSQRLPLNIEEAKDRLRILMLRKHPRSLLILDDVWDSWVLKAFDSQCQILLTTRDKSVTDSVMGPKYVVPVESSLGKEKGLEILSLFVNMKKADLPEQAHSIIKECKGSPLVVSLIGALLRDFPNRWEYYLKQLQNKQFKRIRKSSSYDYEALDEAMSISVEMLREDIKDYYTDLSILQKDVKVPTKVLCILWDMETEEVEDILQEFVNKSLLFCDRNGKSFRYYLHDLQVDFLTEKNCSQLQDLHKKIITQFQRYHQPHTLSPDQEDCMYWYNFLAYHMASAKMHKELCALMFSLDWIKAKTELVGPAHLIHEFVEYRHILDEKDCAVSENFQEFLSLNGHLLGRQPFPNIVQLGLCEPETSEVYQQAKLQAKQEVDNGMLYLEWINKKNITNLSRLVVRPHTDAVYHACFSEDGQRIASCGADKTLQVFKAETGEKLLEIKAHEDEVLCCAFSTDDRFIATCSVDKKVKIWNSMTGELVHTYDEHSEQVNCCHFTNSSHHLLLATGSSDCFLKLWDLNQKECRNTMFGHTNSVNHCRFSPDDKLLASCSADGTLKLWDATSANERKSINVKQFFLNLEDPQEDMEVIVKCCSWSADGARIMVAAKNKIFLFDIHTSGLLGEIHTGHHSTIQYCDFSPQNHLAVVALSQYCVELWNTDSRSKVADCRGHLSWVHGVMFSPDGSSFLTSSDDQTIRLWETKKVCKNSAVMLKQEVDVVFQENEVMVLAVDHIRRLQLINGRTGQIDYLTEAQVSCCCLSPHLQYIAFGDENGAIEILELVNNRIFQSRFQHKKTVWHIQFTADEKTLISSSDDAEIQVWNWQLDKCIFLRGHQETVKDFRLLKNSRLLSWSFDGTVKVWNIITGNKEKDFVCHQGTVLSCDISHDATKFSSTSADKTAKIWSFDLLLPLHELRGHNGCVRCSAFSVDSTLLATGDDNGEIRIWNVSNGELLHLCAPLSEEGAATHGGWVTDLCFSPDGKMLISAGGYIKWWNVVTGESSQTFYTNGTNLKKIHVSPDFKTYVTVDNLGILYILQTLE
It is filed as functional.

Calls of active or inactive are those of the source. No stated cut-off is given here; in the data, actives have a measured IC50 and inactives only a lower limit.

Regarding `CCc1ccc(S(=O)(=O)/N=C2\C=C(NS(=O)(=O)c3ccccc3)C(=O)c3ccccc32)cc1`, the IC50 – broadly, the concentration that gives 50% inhibition – is 13.3 µM (active).

The values are drawn from ChEMBL document CHEMBL1201862, “PubChem BioAssay data set” (2004).
